Values quoted from earlier work, collected in patent US6537525B1, “Medicated chewing-gum” (priority 1997, dated 2003).

Tests used:
[1] = test system: esophageal lesions associated with heartburn; conditions: versus placebo or ranitidine
[2] = antacid; versus magnesium trisilicate or magnesium carbonate

Compound	effectiveness in the healing of esophageal lesions associated with heartburn [1]	potency relative to magnesium trisilicate or magnesium carbonate [2] [times]
NC(N)=Nc1nc(CSCCC(N)=NS(N)(=O)=O)cs1 [Famotidine]	significantly more effective than placebo or ranitidine	–
[O]=[Mg] [Magnesium oxide, magnesium oxide]	–	8 to 10
